# Literature values as cited in US20220133691A1, “LASOFOXIFENE TREATMENT OF VVA AND OSTEOPOROSIS IN SURVIVORS OF BREAST CANCER AND OTHER MALIGNANCIES” (Sermonix Pharmaceuticals, Inc., priority 2016, published 2022).
# Tested on: post-menopausal women with osteoporosis
# Settings: PEARL trial
smiles,measurement,setting,value
Oc1ccc2c(c1)CC[C@H](c1ccccc1)[C@@H]2c1ccc(OCCN2CCCC2)cc1 [lasofoxifene],risk of osteoporosis,"Cummings et al., NEJM 2010",reduce the risk of osteoporosis
same,risk of breast cancer,"post-menopausal women with osteoporosis, LaCroix et al., JNCI 2010",reduced the risk of breast cancer
